Legend:
[1] = tested on: interleukin-8; experiment: IL-8 ELISA, A549 cells; format: cell-based, Human; conditions: 24 hours
Protocol: Because SUW402 and SUW431 are potent activators of NF-κB, we used an enzyme-linked immunosorbent assay to measure their ability to up-regulate inflammatory cytokine production (tumor necrosis factor–α and interleukin-8). We stimulated A549 cells with SUW402 and SUW431 at the same concentrations used in the NF-κB activation assay: 500 and 50 nM (figs. S1 and S2). […] At 500 or 50 nM, both SUW402 and SUW431 produced only modest levels of interleukin-8, a 15 to 25% increase relative to the DMSO negative control.
Enzyme Linked Immunosorbent Assay (ELISA) for SUW402 and SUW431 mediated IL-8 and […]
In efforts to replicate the conditions of the in vitro NF -κB assay, 5 x 10^4 A549 cells were plated per well on Corning® 96-well Clear Round Bottom TC-treated Microplates in 180 μl of pre-warmed DMEM (4.5 g/L glucose, 10% FBS, and 1% Pen-Strep-Glutamine (100 X, 50 mg/mL)).
Following incubation at 37 °C in 5% CO2 for approximately 24 hours to allow for cell adherence, 1.8 μl of either SUW402 or SUW431 were added in triplicate to their respective wells to achieve a final compound concentration of either 50 nM or 500 nM, the two concentrations tested in the NF-κB assay. 24 hours after compound addition, the microplate containing cells treated with compound was spun at 1800 rpm for 3 minutes to allow for pelleting of cells and other debris before 150 μL of cellular supernatant was aspirated and transferred to a new Corning® 96 -well Clear Round Bottom TC-treated Microplate. Note that if the supernatant is not meant to be immediately analyzed, the microplate containing cellular supernatant should be paraf ilm, wrapped, and stored at -80 °C. Careful attention should be paid to avoiding freeze-thaw cycles. To quantify cytokine secretion within samples, dilutions were performed using Assay Buffer A included in the LEGEND MAX™ Human IL-8 ELISA Kit (Cat # 431507) and LEGEND MAX™ Human TNF-α ELISA Kit (Cat # 430207), respectively.
Immediately before running the assay, reagents were allowed to come to room temperature and diluted. Note that if the supernatant is frozen, it should be removed at this time and allowed to thaw. The 1X Wash Buffer was prepared by diluting the 20X Wash Buf fer with Invitrogen™ UltraPure™ DNase/RNase-Free Distilled Water. The lyophilized human IL-8 and TNF-α standards were reconstituted by adding the appropriate volume of Assay Buffer A to prepare the 20 ng/mL standard stock solutions. The reconstituted stand ards were allowed to sit at room temperature for 20 minutes before being gently vortexed to ensure complete mixing. To generate a standard curve for each cytokine, 500 μL of a 1,000 pg/mL top standard was prepared after which six two -fold serial dilutions of the top standard were performed in 1.7 mL microcentrifuge tubes using Assay […]

[2] = tested on: mast cell tumors; conditions: mast cell tumors in canines; cited from earlier work

Structure (SMILES) | IL-8 (ELISA) ([1]; 50 nM) [pg/mL] | IL-8 (ELISA) ([1]; 500 nM) [pg/mL] | cure rate [2] [%]
C/C=C(\C)C(=O)O[C@@H]1[C@@H](C)[C@@]2(O)[C@@H](C=C(CO)C[C@]3(O)C(=O)C(C)=C[C@@H]23)[C@@H]2C(C)(C)[C@]12OC(=O)[C@@H](C)CC [SUW402] | 3352 | 3106 | –
C/C=C(\C)C(=O)O[C@@H]1[C@@H](C)[C@@]2(O)[C@H]([C@@H]3C(C)(C)[C@]13OC(=O)[C@@H](C)CC)[C@@H]1O[C@]1(CO)[C@@H](O)[C@]1(O)C(=O)C(C)=C[C@H]12 [EBC-46, Tigilanol tiglate] | – | – | ≤ 88
C/C=C(\C)C(=O)O[C@@H]1[C@@H](C)[C@@]2(O)[C@H]([C@@H]3C(C)(C)[C@]13OC(=O)Cc1cccc3ccccc13)[C@@H]1O[C@]1(CO)[C@@H](O)[C@]1(O)C(=O)C(C)=C[C@H]12 [SUW431] | 3369 | 3232 | –
